The values below come from patent US20230414509A1, “HYDROPHOBIC DRUGS IN ORGANIC CORE HIGH DENSITY LIPOPROTEIN (HDL) NANOPARTICLES” (NORTHWESTERN UNIVERSITY, priority 2020, published 2023).

Data set [1] concerns U266B1 cells (myeloma). Put plainly: Cytotoxicity IC50, MTS assay, U266B1 cells. In kind it is cell-based. Conditions: U266B1 cells (SR-B1 negative), 72 hours after treatment, read-out: IC-50 values (in nM), U266B1. As to the method: (§1) Specifically, the F7-loaded HDL NPs were tested for cytoxicity against two CTCL cell lines (HH and Hut78), a clear cell renal cell carcinoma cell line (786-O), an anaplastic large cell lymphoma (ALCL) cell line (SR-786), a breast adenocarcinoma cell line (MDA MB 231), a T-cell lymphoma cell line (Jurkat), a myeloma cell line (U266B1), and six prostate cancer cell lines (PC-3, Du-145, CWRR1 WT (wild-type), CWRR1 EnzR (Enzalutamide resistant), LnCap WT (wild type), and LnCap EnzR (Enzalutamide resistant)). The HH and HuT78 cell lines are SR-B1 positive and express p38γ. The SR-786, 786-O, and MDA MB 231 cell lines are also known to be SR-B1 positive. […] The PC-3 and Du-145 cell lines are SR-B1 positive, androgen receptor negative and PTEN null. The CWRR1 WT cell line is SR-B1 positive, androgen receptor positive and PTEN wild type. The CWRR1 EnzR, which is also SR-B1 positive, androgen receptor positive and PTEN wild type, is a prostate cancer cell line derived from patient with castration recurrent disease that is resistant to enzalutamide (a commonly used therapy for castration-resistant prostate cancer patients). The LnCap WT cell line is SR-B1 positive, androgen receptor positive and PTEN null. The LnCap EnzR, which is also SR-B1 positive, androgen receptor positive and PTEN null, is a prostate cancer cell line derived from a lymph node metastasis that is resistant to enzalutamide. […]

The subject of data set [2] is U266B1 cell line (SR-B1 negative). Put plainly: 2 hr pulse treatment, MTS viability, SR-B1 negative U266B1 cell line. Format: cell-based. Particulars: free F7 250 nM or 2.5 μM for 2 hrs, washed, 72 hours, MTS assay. On the procedure: (§2) Following treatment, the cells were washed with fresh media and plated into 96-well plates. The cells were then incubated for 72 hours prior to viability assay (MTS assay).
Background: Tetrazolium dyes change colour on reduction, which living cells bring about.

In data set [3] the test system is HH cells (cutaneous T cell lymphoma). The data set can be described thus: Cytotoxicity IC50, MTS assay, HH cells. Conditions: Homo sapiens, 72 hours after treatment, read-out: IC-50 values (in nM), HH. In kind it is cell-based. As to the method:
as §1

For data set [4], the system named is HuT78 cells (cutaneous T cell lymphoma). Put plainly: Cytotoxicity IC50, MTS assay, HuT78 cells. Format: cell-based. Conditions: Homo sapiens, 72 hours after treatment, read-out: IC-50 values (in nM), HuT78. On the procedure: as §1
The test system of data set [5] is CWRR1 WT cells (prostate cancer). The data set can be described thus: Cytotoxicity IC50, MTS assay, CWRR1 WT cells. In kind it is cell-based. Conditions: 72 hours after treatment, read-out: IC-50 values (in nM), CWRR1 WT. As to the method: as §1
Data set [6] concerns HepG2 cells. Put plainly: Cell-based toxicity screen, HepG2 cells, MTS viability. Particulars: F7 1 μM for 2 hrs, washed, 72 hours, MTS assay.
The subject of data set [7] is LnCap EnzR cells (prostate cancer, Enzalutamide resistant). The data set can be described thus: Cytotoxicity IC50, MTS assay, LnCap EnzR cells. Format: cell-based. Particulars: Homo sapiens, 72 hours after treatment, read-out: IC-50 values (in nM), LnCap EnzR. As to the method: as §1
Data set [8] deals with 780 cells (renal cancer). The data set can be described thus: Cytotoxicity IC50 in renal cancer cell line 780. In kind it is cell-based. As to the method:
(§3) A database analysis was performed and a survival curve for the renal cancer was found showing a separation (p=0.000084) among summarized 877 renal cancer patients by p38γ gene expression level (high vs low). […] All 8 renal cancer cell lines have higher p38γ protein expression level than that of normal HK2 renal cells by western blot experiments (FIG. 3B).

The test system of data set [9] is CWRR1 EnzR cells (prostate cancer, Enzalutamide resistant). Put plainly: Cytotoxicity IC50, MTS assay, CWRR1 EnzR cells. Conditions: 72 hours after treatment, read-out: IC-50 values (in nM), CWRR1 EnzR. In kind it is cell-based. As to the method: as §1
The subject of data set [10] is PC-3 cells (prostate cancer). The data set can be described thus: Cytotoxicity IC50, MTS assay, PC-3 cells. Particulars: Homo sapiens, 72 hours after treatment, read-out: IC-50 values (in nM), PC-3. In kind it is cell-based. On the procedure: as §1
The test system of data set [11] is ACHN cells (renal cancer). The data set can be described thus: Cytotoxicity IC50 in renal cancer cell line ACHN. Format: cell-based. Conditions: Homo sapiens. On the procedure:
as §3

The test system of data set [12] is 786-O cells (clear cell renal cell carcinoma). The data set can be described thus: Cytotoxicity IC50, MTS assay, 786-O cells. Format: cell-based. Particulars: Homo sapiens, 786-0, 72 hours after treatment, read-out: IC-50 values (in nM), 786-O. On the procedure: as §1
Data set [13] has as its system Jurkat cells (T-cell lymphoma). Put plainly: Cytotoxicity IC50, MTS assay, Jurkat cells. In kind it is cell-based. Conditions: Homo sapiens, Jurkat cells (SR-B1 negative), 72 hours after treatment, read-out: IC-50 values (in nM), Jurkat. As to the method:
as §1

Data set [14] deals with HH cell line (SR-B1 positive). Put plainly: 2 hr pulse treatment, MTS viability, SR-B1 positive HH cell line. Format: cell-based. Particulars: free F7 250 nM or 2.5 μM for 2 hrs, washed, 72 hours, MTS assay. As to the method: as §2
In data set [15] the test system is Du-145 cells (prostate cancer). Put plainly: Cytotoxicity IC50, MTS assay, Du-145 cells. In kind it is cell-based. Particulars: Homo sapiens, 72 hours after treatment, read-out: IC-50 values (in nM), Du-145. On the procedure: as §1
The subject of data set [16] is SR-786 cells (anaplastic large cell lymphoma). Put plainly: Cytotoxicity IC50, MTS assay, SR-786 cells. Format: cell-based. Conditions: 72 hours after treatment, read-out: IC-50 values (in nM), SR-786. As to the method:
as §1

The subject of data set [17] is MDA MB 231 cells (breast adenocarcinoma). Put plainly: Cytotoxicity IC50, MTS assay, MDA MB 231 cells. Format: cell-based. Conditions: Homo sapiens, 72 hours after treatment, read-out: IC-50 values (in nM), MDA MB 231. As to the method: as §1
Data set [18] concerns Hut78 cells. The data set can be described thus: Cytotoxic impact of F7 on Hut78 cells (screening). In kind it is cell-based. Particulars: Homo sapiens. The text has this: Cutaneous T cell lymphoma (CTCL) is a disfiguring and aggressive cancer. For patients with advanced disease, current therapies are inadequate, and outcome is poor. Incomplete understanding of CTCL molecular regulators has limited development of effective targeted therapies. One candidate regulator is p38gamma (p38γ), a mitogen-activated protein kinase downstream from the T cell receptor that is crucial for T cell activity and growth. […] In addition, only p38γ has been identified as essential protein for CTCL growth among the four p38 isoforms by gene knockdown experiments, which makes p38γ an ideal target for the therapeutic drug development in this particular T cell lymphoma.

The test system of data set [19] is LnCap WT cells (prostate cancer). The data set can be described thus: Cytotoxicity IC50, MTS assay, LnCap WT cells. Format: cell-based. Particulars: Homo sapiens, 72 hours after treatment, read-out: IC-50 values (in nM), LnCap WT. As to the method:
as §1

As for `Cc1ccc([N+](=O)[O-])cc1S(=O)(=O)N(C)/N=C/c1cnc2ccc(Br)cn12.Cl` [F7, PIK75], the IC50 in [1] came to 44.1 nM; in data set [3], 41.3 nM; in data set [4], 45.6 nM; in [5] it was 15.9 nM; in [7], 75.5 nM; in [8], 33 nM. Besides, the IC50 in data set [9] was determined as 24.7 nM; in [10], 28.1 nM; in [11], 17 nM; in [12] it was 283 nM; in data set [13], 116 nM; in data set [15], 84.7 nM. Moreover, the IC50 in data set [16] came out at 12.6 nM; in data set [17], 688 nM; in data set [18], 33 nM; in data set [19], 53 nM. Also, the “cytotoxicity, U266B1 cell line, free F7” value in data set [2] is recorded as “unable to cause cytotoxicity”. For the same molecule, the “cytotoxicity, HepG2 cells, free F7” value in [6] was “mild levels of cytotoxicity”. Besides, the “cytotoxicity, HH cell line, free F7” value in [14] was “unable to cause cytotoxicity”.
